Measurements reported in US11369596B2, “Methods of treating a neurodegenerative disease in a mammal in need thereof” (Thomas Jefferson University, priority 2013, dated 2022).

Columns and labels:
SOD1-G93A mice [1] = experiment: Compound muscle action potential (CMAP) recordings; type: in vivo; conditions: 140 day SOD1-G93A mice
From the text: Compound Muscle Action Potential (CMAP) Recordings:
Mice were anesthetized with 1% isoflurane and 0.5% oxygen. Following dermatomoty, stainless steel-stimulating needle electrodes were inserted at the sciatic notch, near the sciatic nerve. A ground electrode was placed subcutaneously in the back, and a reference electrode placed subcutaneously at the ankle. The sciatic nerve was stimulated (0.2 ms duration; 1.6 mV amplitude) and the response recorded via a needle electrode inserted into the plantar muscle in the medial half of the foot, following the line connecting the first and fifth tarsal/metatarsal joints. Data was collected using ADI Powerlab 8/30 stimulator and BioAMP amplifier (ADInstruments, Colorado Springs, Colo.) and analyzed using Scope 3.5.6 (ADInstruments). The compound muscle action potential (M-wave) amplitude was measured from baseline to peak. Data was averaged between left and right hind limb traces.

ALS = ALS patients; cited from earlier work
SOD1-G93A mice [2] = test system: SOD1-G93A mice
Procedure: Drug Treatment and Survival Analysis:
Baseline and study measures were recorded for weight, grip strength, food consumption, and survival. Determination of end-stage was the inability for a mouse to right itself after 30 seconds of being placed on its side.

liver of SOD1-G93A mice = conditions: mouse, in vivo
Procedure: Periodic Acid Schiff Staining:
Saline perfused liver was postfixed with 4% paraformaldehyde for 24 h followed by 24 h incubation in 30% sucrose solution, embedded in OCT solution, and stored at −80° C. until sectioned (10 μm thickness). Sections were hydrated with water, immersed in PAS solutions (Sigma; 395) for 5 min at room temperature, and washed in water. Sections were immersed for 4 min in Schiff's reagent and washed in water for 5 min. Sections were counterstained with hematoxylin solution, dehydrated in ethanol and HemoD solution, mounted, and imaged.

Nc1nc2ccc(OC(F)(F)F)cc2s1 [riluzole, 6-(trifluoromethoxy)benzothiazol-2-amine]
CMAP peak amplitude (SOD1-G93A mice [1]): 5.00±0.67 mV | slowing of disease progression (ALS): 3-9 months

COc1cc2c(cc1OC)CN(CCc1ccc(NC(=O)c3cccc4c(=O)c5cccc(OC)c5[nH]c34)cc1)CC2 [elacridar, N-[4-[2-(3,4-dihydro-6,7-dimethoxy-2(1H)-isoquinolinyl)ethyl]phenyl]-9,10-dihydro-5-methoxy-9-oxo-4-acridine carboxamide]
effect on disease progression / survival (SOD1-G93A mice [2]; chronic elacridar alone, beginning at disease onset, SOD1-G93A mice): did not alter disease progression | safety of chronic treatment (SOD1-G93A mice [2]; mouse, in vivo): safe | liver toxicity (periodic acid Schiff staining) (liver of SOD1-G93A mice): did not cause liver toxicity
